biological target: T1, estrogen receptor alpha (ESR1) in MCF7 breast cancer cells (Homo sapiens, UniProt P03372); test: Breast Cancer Cell ERa High Content Fluorescence Imaging Assay (F10); format: cell-based; conditions: 4 hours, plateau of the maximal effect, DMSO and 5 nM Fulvestrant define 0% and 100% changes in ESR1
T1 construct: endogenous in cells; host or cells: MCF7 breast cancer cells
T1 sequence (P03372 1-595): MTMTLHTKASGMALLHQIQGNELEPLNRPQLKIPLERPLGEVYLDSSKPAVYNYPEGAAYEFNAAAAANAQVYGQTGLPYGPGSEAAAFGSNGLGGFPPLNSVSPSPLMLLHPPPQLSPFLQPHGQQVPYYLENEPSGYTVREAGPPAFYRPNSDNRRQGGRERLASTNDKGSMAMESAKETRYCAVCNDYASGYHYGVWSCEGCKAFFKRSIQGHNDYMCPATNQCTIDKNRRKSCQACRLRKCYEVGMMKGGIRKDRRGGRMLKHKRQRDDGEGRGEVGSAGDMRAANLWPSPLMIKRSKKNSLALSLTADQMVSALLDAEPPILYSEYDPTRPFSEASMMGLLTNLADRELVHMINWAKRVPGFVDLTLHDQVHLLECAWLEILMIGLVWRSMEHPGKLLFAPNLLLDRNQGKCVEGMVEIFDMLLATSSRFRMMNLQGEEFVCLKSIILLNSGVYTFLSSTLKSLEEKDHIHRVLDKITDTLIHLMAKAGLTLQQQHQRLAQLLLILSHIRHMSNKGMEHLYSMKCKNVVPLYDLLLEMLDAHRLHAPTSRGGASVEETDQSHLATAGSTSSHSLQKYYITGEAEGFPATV
Protocol: Breast Cancer Cell ERa High Content Fluorescence Imaging Assay (F10)
Cell plates were incubated at 37° C., for 4 hours. Fixation and permeabilization were carried out using a Biotek EL406 plate washer and dispenser as follows. […] Samples were incubated 30 minutes. Well contents was aspirated and 50 ul/well of Phosphate Buffered Saline (PBS) containing 0.5% w/v bovine serum albumen, 0.5% v/v Triton X-100 (Antibody Dilution Buffer) was added to each well. Samples were incubated for 30 minutes. Well contents were aspirated and washed 3 times with 100 ul/well of PBS. Immunofluorescence staining of estrogen receptor alpha (ESR1) was carried out using a Biotek EL406 plate washer and dispenser as follows. […] Samples were incubated for 2 hours at room temperature. Samples were washed 4 times with 100 ul/well of PBS. […] Samples were incubated for 2 hours at room temperature. Samples were washed 3 times with 100 ul/well of PBS using a Biotek EL406. Quantitative fluorescence imaging of ESR1 was carried out using a Cellomics Arrayscan V (Thermo). […] Channel 1 (DNA stain) was used to define the nuclear region (Circ). […] Data analysis was carried out using Genedata Screener Software, with DMSO and 5 nM Fulvestrant treated samples being used to define the 0% and 100% changes in ESR1. The “Robust Fit” method was used to define the inflexion point of curve (EC50) and the plateau of the maximal effect (Sinf).

**Q.** For `CC1=C(c2ccc(NS(C)(=O)=O)cc2)C(c2ccc(OCCN3CC(CF)C3)cc2)Oc2ccc(O)cc21` (stereo not drawn) [Example 13, N-(4-(2-(4-(2-(3-(Fluoromethyl)azetidin-1-yl)ethoxy)phenyl)-6-hydroxy-4-methyl-2H-chromen-3-yl)phenyl)methanesulfonamide], which “ER-alpha MCF7 HCS Sinf (%)” value is on record?
**A.** Its value is −68%.

**Q.** For `CC1=C(c2ccc(Cl)c(F)c2)C(c2ccc(OCCN3CC[C@@H](CF)C3)cc2)Oc2ccc(O)cc21` (stereo partly drawn) [Example 2], which “ER-alpha MCF7 HCS Sinf (%)” value is on record?
**A.** Its value is −95%.

**Q.** Which “ER-alpha MCF7 HCS Sinf (%)” value does the source give for `CC1=C(c2cccc(Cl)c2)[C@@H](c2ccc(OCCN3CC(CF)C3)cc2)Oc2ccc(O)cc21` [Example 36, (R)-3-(3-chlorophenyl)-2-(4-(2-(3-(fluoromethyl)azetidin-1-yl)ethoxy)phenyl)-4-methyl-2H-chromen-6-ol] here?
**A.** Its value is −95%.

**Q.** Which “ER-alpha MCF7 HCS Sinf (%)” value does the source give for `CC1=C(c2cccc(O)c2)C(c2ccc(OCCN3CC(CF)C3)cc2)Oc2cc(Cl)c(O)cc21` (stereo not drawn) [Example 26, 7-Chloro-2-(4-(2-(3-(fluoromethyl)azetidin-1-yl)ethoxy)phenyl)-3-(3-hydroxyphenyl)-4-methyl-2H-chromen-6-ol] here?
**A.** Its value is −93%.

**Q.** How did the “ER-alpha MCF7 HCS Sinf (%)” value turn out when `CC1=C(c2ccc(C(N)=O)cc2)C(c2ccc(OCCN3CC(CF)C3)cc2)Oc2ccc(O)cc21` (stereo not drawn) [Example 15, 4-(2-(4-(2-(3-(Fluoromethyl)azetidin-1-yl)ethoxy)phenyl)-6-hydroxy-4-methyl-2H-chromen-3-yl)benzamide] was run?
**A.** Its value is −99%.

**Q.** With `CC1=C(c2cccc(C(N)=O)c2)C(c2ccc(OCCN3CC(CF)C3)cc2)Oc2ccc(O)cc21` (stereo not drawn) [Example 14, 3-(2-(4-(2-(3-(Fluoromethyl)azetidin-1-yl)ethoxy)phenyl)-6-hydroxy-4-methyl-2H-chromen-3-yl)benzamide] as the compound, how does the “ER-alpha MCF7 HCS Sinf (%)” value read?
**A.** Its value is −97%.

**Q.** `CC1=C(c2ccc(F)c(C#N)c2)C(c2ccc(OCCN3CC(CF)C3)cc2)Oc2ccc(O)cc21` (stereo not drawn) [Example 33, 2-fluoro-5-[2-[4-[2-[3-(fluoromethyl)azetidin-1-yl]ethoxy]phenyl]-6-hydroxy-4-methyl-2H-chromen-3-yl]benzonitrile] was tested. Which “ER-alpha MCF7 HCS Sinf (%)” value did it give?
**A.** The value was −96%.

**Q.** `CC1=C(c2ccc(F)cc2Cl)[C@H](c2ccc(OCCN3CC(CF)C3)cc2)Oc2ccc(O)cc21` [Example 41, (2S)-3-(2-chloro-4-fluoro-phenyl)-2-[4-[2-[3-(fluoromethyl)azetidin-1-yl]ethoxy]phenyl]-4-methyl-2H-chromen-6-ol] was tested. Which “ER-alpha MCF7 HCS Sinf (%)” value did it give?
**A.** Its value is −100%.

**Q.** Which “ER-alpha MCF7 HCS Sinf (%)” value does the source give for `CC1=C(c2cc(F)cc(F)c2)[C@H](c2ccc(OCCN3CC(CF)C3)cc2)Oc2ccc(O)cc21` [Example 20, (R)- and (S)-3-(3,5-Difluorophenyl)-2-(4-(2-(3-(fluoromethyl)azetidin-1-yl)ethoxy)phenyl)-4-methyl-2H-chromen-6-ol] here?
**A.** The value was −103%.

**Q.** With `CC1=C(c2cccc(Cl)c2)[C@H](c2ccc(OCCN3CC(CF)C3)cc2)Oc2ccc(O)cc21` [Example 37, (S)-3-(3-chlorophenyl)-2-(4-(2-(3-(fluoromethyl)azetidin-1-yl)ethoxy)phenyl)-4-methyl-2H-chromen-6-ol] as the compound, how does the “ER-alpha MCF7 HCS Sinf (%)” value read?
**A.** The value was −98%.

**Q.** `CC1=C(c2cc(F)ccc2C)C(c2ccc(OCCN3CC(CF)C3)cc2)Oc2ccc(O)cc21` (stereo not drawn) [Example 7, 3-(5-Fluoro-2-methylphenyl)-2-(4-(2-(3-(fluoromethyl)azetidin-1-yl)ethoxy)phenyl)-4-methyl-2H-chromen-6-ol] was tested. Which “ER-alpha MCF7 HCS Sinf (%)” value did it give?
**A.** Its value is −99%.

**Q.** Which “ER-alpha MCF7 HCS Sinf (%)” value does the source give for `CC1=C(c2ccc(F)cc2C)C(c2ccc(OCCN3CC(CF)C3)cc2)Oc2ccc(O)cc21` (stereo not drawn) [Example 6, 3-(4-Fluoro-2-methylphenyl)-2-(4-(2-(3-(fluoromethyl)azetidin-1-yl)ethoxy)phenyl)-4-methyl-2H-chromen-6-ol] here?
**A.** The value was −96%.

**Q.** Which “ER-alpha MCF7 HCS Sinf (%)” value does the source give for `CC1=C(c2ccc(F)cc2Cl)C(c2ccc(OCCN3CC(CF)C3)cc2)Oc2ccc(O)cc21` (stereo not drawn) [Example 32, 3-(2-chloro-4-fluoro-phenyl)-2-[4-[2-[3-(fluoromethyl)azetidin-1-yl]ethoxy]phenyl]-4-methyl-2H-chromen-6-ol] here?
**A.** The value was −99%.

**Q.** How did the “ER-alpha MCF7 HCS Sinf (%)” value turn out when `CC1=C(c2ccc(CO)cc2)C(c2ccc(OCCN3CC(CF)C3)cc2)Oc2ccc(O)cc21` (stereo not drawn) [Example 16, 2-(4-(2-(3-(Fluoromethyl)azetidin-1-yl)ethoxy)phenyl)-3-(4-(hydroxymethyl)phenyl)-4-methyl-2H-chromen-6-ol] was run?
**A.** The value was −99%.

**Q.** `CC1=C(c2cccc(NS(C)(=O)=O)c2)C(c2ccc(OCCN3CC(CF)C3)cc2)Oc2ccc(O)cc21` (stereo not drawn) [Example 12, N-(3-(2-(4-(2-(3-(Fluoromethyl)azetidin-1-yl)ethoxy)phenyl)-6-hydroxy-4-methyl-2H-chromen-3-yl)phenyl)methanesulfonamide] was tested. Which “ER-alpha MCF7 HCS Sinf (%)” value did it give?
**A.** Its value is −93%.

**Q.** `CC1=C(c2ccc(F)cc2)C(c2ccc(OCCN3CC(CF)C3)cc2)Oc2cc(C#N)c(O)cc21` (stereo not drawn) [Example 30, 2-{4-[2-(3-Fluoromethyl-azetidin-1-yl)-ethoxy]-phenyl}-3-(4-fluorophenyl)-6-hydroxy-4-methyl-2H-chromene-7-carbonitrile] was tested. Which “ER-alpha MCF7 HCS Sinf (%)” value did it give?
**A.** The value was −92%.

**Q.** `CC1=C(c2cccc(CO)c2)C(c2ccc(OCCN3CC(CF)C3)cc2)Oc2ccc(O)cc21` (stereo not drawn) [Example 17, 2-(4-(2-(3-(Fluoromethyl)azetidin-1-yl)ethoxy)phenyl)-3-(3-(hydroxymethyl)phenyl)-4-methyl-2H-chromen-6-ol] was tested. Which “ER-alpha MCF7 HCS Sinf (%)” value did it give?
**A.** Its value is −101%.

**Q.** Which “ER-alpha MCF7 HCS Sinf (%)” value does the source give for `CC1=C(c2cc(F)ccc2F)[C@H](c2ccc(OCCN3CC(CF)C3)cc2)Oc2ccc(O)cc21` [Example 43, (2S)-3-(2,5-difluorophenyl)-2-[4-[2-[3-(fluoromethyl)azetidin-1-yl]ethoxy]phenyl]-4-methyl-2H-chromen-6-ol] here?
**A.** The value was −94%.

**Q.** With `CC(=O)Nc1cccc(C2=C(C)c3cc(O)ccc3OC2c2ccc(OCCN3CC(CF)C3)cc2)c1` (stereo not drawn) [Example 10, N-(3-(2-(4-(2-(3-(Fluoromethyl)azetidin-1-yl)ethoxy)phenyl)-6-hydroxy-4-methyl-2H-chromen-3-yl)phenyl)acetamide] as the compound, how does the “ER-alpha MCF7 HCS Sinf (%)” value read?
**A.** The value was −94%.

**Q.** How did the “ER-alpha MCF7 HCS Sinf (%)” value turn out when `CC1=C(c2cccc(F)c2Cl)C(c2ccc(OCCN3CC(CF)C3)cc2)Oc2ccc(O)cc21` (stereo not drawn) [Example 5] was run?
**A.** The value was −98%.

**Q.** How did the “ER-alpha MCF7 HCS Sinf (%)” value turn out when `CC1=C(c2ccc(F)c(C#N)c2)[C@H](c2ccc(OCCN3CC(CF)C3)cc2)Oc2ccc(O)cc21` [Example 35, (S)-2-fluoro-5-(2-(4-(2-(3-(fluoromethyl)azetidin-1-yl)ethoxy)phenyl)-6-hydroxy-4-methyl-2H-chromen-3-yl)benzonitrile] was run?
**A.** Its value is −97%.

**Q.** For `CC1=C(c2ccc(F)c(C#N)c2)[C@@H](c2ccc(OCCN3CC(CF)C3)cc2)Oc2ccc(O)cc21` [Example 34, (R)-2-fluoro-5-(2-(4-(2-(3-(fluoromethyl)azetidin-1-yl)ethoxy)phenyl)-6-hydroxy-4-methyl-2H-chromen-3-yl)benzonitrile], which “ER-alpha MCF7 HCS Sinf (%)” value is on record?
**A.** Its value is −88%.

**Q.** For `CC1=C(c2cc(F)cc(F)c2)[C@@H](c2ccc(OCCN3CC(CF)C3)cc2)Oc2ccc(O)cc21` [Example 19, (R)- and (S)-3-(3,5-Difluorophenyl)-2-(4-(2-(3-(fluoromethyl)azetidin-1-yl)ethoxy)phenyl)-4-methyl-2H-chromen-6-ol], which “ER-alpha MCF7 HCS Sinf (%)” value is on record?
**A.** The value was −50%.

**Q.** Which “ER-alpha MCF7 HCS Sinf (%)” value does the source give for `CC(=O)Nc1ccc(C2=C(C)c3cc(O)ccc3OC2c2ccc(OCCN3CC(CF)C3)cc2)cc1` (stereo not drawn) [Example 11, N-(4-(2-(4-(2-(3-(Fluoromethyl)azetidin-1-yl)ethoxy)phenyl)-6-hydroxy-4-methyl-2H-chromen-3-yl)phenyl)acetamide] here?
**A.** Its value is −93%.

— patent publication US20160175284A1, “ESTROGEN RECEPTOR MODULATORS AND USES THEREOF” (Genentech, Inc., priority 2014, published 2016)
